Measurements from patent publication US6638967B2, “Thiophene of furan pyrrolidine compounds” (Ortho-McNeil Phamraceutical, Inc., priority 2000, dated 2003).
Counter-ions that a name gives are not always drawn.

Molecular target: T1, human histamine H3 receptor (Homo sapiens, UniProt Q9Y5N1)
T1 construct: One microgram of supercoiled H3 receptor cDNA was added to the cells and mixed; expressed in transfected cells
Assay: [3H]-N-methylhistamine binding
Settings: membranes of histamine H3 receptor-expressing SK-N-MC cells, 0.8 nM [3H]-N-methylhistamine, 45 min at 25° C.
Protocol: Thus in the present invention receptor binding was determined using the human histamine H3 receptor (See Lovenberg et al Mol. Pharmacol. 1999, 1107). Screening using the human receptor is particularly important for the identification of new therapies for the treatment of human disease. Conventional binding assays for example are determined using rat synaptosomes (Garbarg et al J. Pharmacol. Exp. Ther. 1992, 263, 304), rat cortical membranes (West et al Mol. Pharmacol. 1990, 610), and guinea pig brain (Korte et al Biochem. Biophys. Res. Commun. 1990, 978). Only limited studies have been performed previously using human tissue but these allude to significant differences in the pharmacology of rodent and primate receptors (West et al Eur. J. Pharmacol. 1999, 233).
Transfection of Cells With Human Histamine Receptor
A 10 cm tissue culture dish with a confluent monolayer of SK-N-MC cells was split two days prior to transfection. Using sterile technique the media was removed and the cells were detached from the dish by the addition of trypsin. One fifth of the cells were then placed onto a new 10 cm dish. Cells were grown in a 37° C. incubator with 5% CO2 in Minimal Essential Media Eagle with 10% Fetal Bovine Serum. After two days cells were approximately 80% confluent. These were removed from the dish with trypsin and pelleted in a clinical centrifuge. The pellet was then re-suspended in 400 μL complete media and transferred to an electroporation cuvette with a 0.4 cm gap between the electrodes (Bio-Rad #165-2088). One microgram of supercoiled H3 receptor cDNA was added to the cells and mixed. The voltage for the electroporation was set at 0.25 kV; the capacitance was set at 960 μF. After electroporation the cells were diluted into 10 mL complete media and plated onto four 10 cm dishes. Because of the variability in the efficiency of electroporation, four different concentrations of cells were plated. The ratios used were; 1:20, 1:10, 1:5, with the remainder of the cells being added to the fourth dish. The cells were allowed to recover for 24 hours before adding the selection media (complete media with 600 μg/mL G418). After 10 days dishes were analyzed for surviving colonies of cells. Dishes with well isolated colonies were used. Cells from individual colonies were isolated and tested. SK-N-MC cells were used because they give efficient coupling for inhibition of adenylate cyclase. The clones that gave the most robust inhibition of adenylate cyclase in response to histamine were used for further study.
[^3H]-N-methylhistamine binding
Cell pellets from histamine H3 receptor-expressing SK-N-MC cells were homogenized in 20 mM TrisHCI/0.5 mM EDTA. Supernatants from a 800 g spin were collected, recentrifuged at 30,000 g for 30 minutes. Pellets were re-homogenized in 50 mM Tris/5 mM EDTA (pH 7.4). Membranes were incubated with 0.8 nM [^3H]-N-methylhistamine plus/minus test compounds for 45 min at 25° C. and harvested by rapid filtration over GF/C glass fiber filters (pretreated with 0.3 % polyethylenimine) followed by four washes with ice cold buffer. Filters were dried, added to 4 mL scintillation cocktail and then counted on a liquid scintillation counter. Non-specific binding was defined with 10 μM histamine. The pKi values were calculated based on a Kd of 800 pM and a ligand concentration ([L]) of 800 pM according to the formula: […]

T1 sequence (Q9Y5N1 whole entry): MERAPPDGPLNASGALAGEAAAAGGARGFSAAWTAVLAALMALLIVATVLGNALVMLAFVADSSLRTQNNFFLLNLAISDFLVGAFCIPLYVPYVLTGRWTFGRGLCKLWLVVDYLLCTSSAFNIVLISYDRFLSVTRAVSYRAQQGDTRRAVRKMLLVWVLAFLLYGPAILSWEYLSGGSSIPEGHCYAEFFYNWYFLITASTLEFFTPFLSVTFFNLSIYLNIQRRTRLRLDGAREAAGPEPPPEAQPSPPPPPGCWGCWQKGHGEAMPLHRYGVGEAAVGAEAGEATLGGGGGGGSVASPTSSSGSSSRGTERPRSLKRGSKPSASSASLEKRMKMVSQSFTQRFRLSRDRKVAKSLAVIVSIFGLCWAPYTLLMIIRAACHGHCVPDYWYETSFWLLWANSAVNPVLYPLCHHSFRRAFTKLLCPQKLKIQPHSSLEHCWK

Q: `c1cc(N(CCCN2CCCCC2)c2ccc(CN3CCCC3)cc2)ccc1CN1CCCC1` [Example 24, (3Piperidin-1-yl-propyl)-bis-(4pyrrolidin1-ylmethyl-phenyl)-amine] was tested. Which Ki did it give?
A: The Ki was 3.5 nM.

Q: With `c1cc(CCN2CCCC2)ccc1CCc1ccc(CCN2CCCC2)cc1` [Example 29, 1-(2-{4-[2-(1-Phenethyl-pyrrolidine)-ethyl]-phenyl}-ethyl)-pyrrolidine] as the compound, how does the Ki read?
A: Its Ki is 26.6 nM.

Q: With `c1cc(Oc2ccc(CNC3=NCCN3)cc2)ccc1CNC1=NCCN1` [Example 17, 2-[4-(4-(2Imidazolin)-2-ylaminomethyl-phenoxy-)-benzyl-amino]-2-imidazolidone] as the compound, how does the Ki read?
A: Its Ki is 344 nM.

Q: With `c1cc(Oc2ccc(CN3CCCCC3)cc2)ccc1CN1CCCCC1` [Example 7] as the compound, how does the Ki read?
A: The Ki was 0.66 nM.

Q: For `CN(C)CCCSc1ccc(C(=O)c2ccc(SCCCN(C)C)cc2)cc1` [Example 32, Bis-[4-(3-dimethylamino-propylsulfanyl)-phenyl]methanone dihydrochloride], which Ki is on record?
A: Its Ki is 14 nM.

Q: `O=S(=O)(c1ccc(CN2CCCC2)cc1)c1ccc(CN2CCCC2)cc1` [Example 8] was tested. Which Ki did it give?
A: Its Ki is 2.5 nM.

Q: For `O=Cc1ccc(-c2ccc(CN3CCCC3)cc2)cc1` [Example 27, 4′-Pyrrolidin-1-ylmethyl-biphenyl-4-carbaldehyde], which Ki is on record?
A: The Ki was 8.7 nM.

Q: How did the Ki turn out when `c1cn(Cc2ccc(Cc3ccc(Cn4ccnc4)cc3)cc2)cn1` [Example 11] was run?
A: The Ki was 150 nM.

Q: With `Cn1ccnc1SCc1ccc(Oc2ccc(CSc3nccn3C)cc2)cc1` [Example 16, 2-[4-(4-(1Methyl-imidazo)-2-ylthiomethyl-phenoxy-)-benzyl-thio]-1-methyl-imidazole] as the compound, how does the Ki read?
A: The Ki was 792 nM.

Q: Which Ki does the source give for `C/N=C(\NC)SCc1ccc(Oc2ccc(CS/C(=N/C)NC)cc2)cc1` [Example 12] here?
A: Its Ki is 85 nM.

Q: `c1cn(Cc2ccc(Oc3ccc(Cn4ccnc4)cc3)cc2)cn1` [Example 10] was tested. Which Ki did it give?
A: Its Ki is 151 nM.

Q: For `c1cc(CN2CCCC2)n(Cc2ccc(CN3CCCC3)cc2)c1` [Example 31], which Ki is on record?
A: Its Ki is 3.2 nM.

Q: For `c1ccn(Cc2ccc(COc3ccc(CN4CCCC4)cc3)cc2)c1` [Example 20, 1-[4-(4Pyrrolidin1-ylmethyl-phenoxymethyl)-benzyl]-1H-pyrrole], which Ki is on record?
A: The Ki was 16 nM.

Q: With `c1cc(-c2ccc(CN3CCCC3)s2)ccc1CN1CCCC1` [Example 1] as the compound, how does the Ki read?
A: The Ki was 9 nM.

Q: How did the Ki turn out when `c1cc(CN2CCCC2)c(-c2ccc(CN3CCCC3)cc2)s1` [Example 4, 1-[(2-(4-Pyrrolidin-1-ylmethyl-phenyl)-thiophen)-3-ylmethyl]-pyrrolidine] was run?
A: The Ki was 9 nM.

Q: With `c1cc(Oc2ccc(CSC3=NCCS3)cc2)ccc1CSC1=NCCS1` [Example 15, 2-[4-(4-(2Thiazolin)-2-ylthiomethyl-phenoxy-)-benzyl-thio]-2-thiazoline] as the compound, how does the Ki read?
A: The Ki was 2570 nM.

Q: How did the Ki turn out when `c1cc(Cn2ccc(CN3CCCC3)c2)ccc1CN1CCCC1` [Example 30] was run?
A: Its Ki is 24.2 nM.

Q: With `c1cc(-c2ccc(CN3CCCC3)s2)sc1CN1CCCC1` [Example 3] as the compound, how does the Ki read?
A: Its Ki is 1.4 nM.

Q: How did the Ki turn out when `c1cc(Oc2ccc(CN3CCCC3)cc2)ccc1CN1CCCC1` [Example 6] was run?
A: The Ki was 0.5 nM.

Q: For `CN(C)CCN(c1ccc(CN2CCCC2)cc1)c1ccc(CN2CCCC2)cc1` [Example 25], which Ki is on record?
A: The Ki was 453 nM.

Q: For `c1cc(-c2ccc(CN3CCCC3)cc2)c(CN2CCCC2)s1` [Example 5, 1-[(3-(4-Pyrrolidin-1-ylmethyl-phenyl)-thiophen)-2-ylmethyl]-pyrrolidine], which Ki is on record?
A: Its Ki is 63 nM.

Q: `c1cc(CN2CCCC2)ccc1Cc1ccc(CN2CCCC2)cc1` [Example 9] was tested. Which Ki did it give?
A: Its Ki is 2 nM.

Q: For `c1ccc(CN(c2ccc(CN3CCCC3)cc2)c2ccc(CN3CCCC3)cc2)cc1` [Example 23, Benzyl-bis-(4pyrrolidin1-ylmethyl-phenyl)-amine], which Ki is on record?
A: The Ki was 15 nM.

Q: For `CN(C)CCCOc1ccc(C(=O)c2ccc(O)cc2)cc1` [Example 33, [4-(3-Dimethylamino-propoxy)-phenyl]-(4-hydroxy-phenyl)-methanone], which Ki is on record?
A: The Ki was 129 nM.

Q: Which Ki does the source give for `c1cc(-c2ccc(CN3CCCC3)o2)ccc1CN1CCCC1` [Example 2] here?
A: Its Ki is 0.41 nM.

Q: For `CN(C)CCOc1ccc(C(=O)c2ccc(OCCN(C)C)cc2)cc1` [Example 34, Bis-[4-(2-dimethylamino-ethoxy)-phenyl]-methanone], which Ki is on record?
A: The Ki was 126 nM.

Q: `O=[N+]([O-])c1cc(CN2CCCCC2)ccc1Sc1ccc(N2CCCCC2)cc1` [Example 26, 1-[4-(4-Piperidine-phenylsulfanyl)-3-nitro-benzyl]-piperidine] was tested. Which Ki did it give?
A: The Ki was 756 nM.

Q: For `ON=Cc1ccc(-c2ccc(CN3CCCC3)cc2)cc1` [Example 28, 4′-Pyrrolidin-1-ylmethyl-biphenyl-4-carbaldehyde oxime], which Ki is on record?
A: Its Ki is 6.5 nM.

Q: `CNC(=N)SCc1ccc(Oc2ccc(CSC(=N)NC)cc2)cc1` [Example 13] was tested. Which Ki did it give?
A: Its Ki is 629 nM.
